Assay results: patent publication US7993917B2, “Method for obtaining a cellular product from a cell or a tissue using protein-free medium” (The United States of America as represented by the …, priority 1999, dated 2011)
Read-outs that look alike come from different tables or passages of the source.

Tested on: P. falciparum isolates
Assay: 48 hour parasite lactate dehydrogenase (48 hr pLDH) drug sensitivity assay after transport from the field on ice in BAM
Assay type: cell-based
Details: Plasmodium falciparum
Procedure: Malaria parasites fail to thrive after removal from the patient. They can be preserved either by cryopreservation in liquid nitrogen or storage at −70° C. These techniques used for long term storage are too labor-intensive and expensive for routine use. […] Transit time can vary between a few hours to less than a week. Because of the clinical demand for such a service, BAM was evaluated in the field as a transport medium for malaria parasites.

[1] = 24 h, isolate 1107, 1 day in transit, read-out: IC50
[2] = 24 h, isolate 1236, 1 day in transit, read-out: IC50
[3] = 24 h, isolate A116, 1 day in transit, read-out: IC50
[4] = 24 h, isolate A246, 1 day in transit, read-out: IC50
[5] = 24 h, isolate A296, 1 day in transit, read-out: IC50
[6] = 24 h, isolate B236, 1 day in transit, read-out: IC50
[7] = 24 h, isolate C67, 1 day in transit, read-out: IC50
[8] = 24 h, isolate C107, 1 day in transit, read-out: IC50
[9] = 24 h, isolate C166, 1 day in transit, read-out: IC50
[10] = 24 h, isolate D86, 1 day in transit, read-out: IC50
[11] = 24 h, isolate D107, 1 day in transit, read-out: IC50
[12] = 24 h, isolate D296, 1 day in transit, read-out: IC50
[13] = 24 h, isolate E107, 1 day in transit, read-out: IC50
[14] = 24 h, isolate F166, 1 day in transit, read-out: IC50
[15] = 24 h, isolate F296, 1 day in transit, read-out: IC50
[16] = 24 h, isolate G17, 1 day in transit, read-out: IC50
[17] = 24 h, isolate G236, 1 day in transit, read-out: IC50
[18] = 24 h, isolate H107, 1 day in transit, read-out: IC50
[19] = 24 h, isolate J107, 1 day in transit, read-out: IC50
[20] = 24 h, isolate K107, 1 day in transit, read-out: IC50
[21] = 24 h, isolate KilH, 1 day in transit, read-out: IC50
[22] = 24 h, isolate KilS, 1 day in transit, read-out: IC50
[23] = 24 h, isolate L107, 1 day in transit, read-out: IC50
[24] = 24 h, isolate L137, 1 day in transit, read-out: IC50
[25] = 48 h, isolate B116, 2 days in transit, read-out: IC50
[26] = 48 h, isolate B296, 2 days in transit, read-out: IC50
[27] = 48 h, isolate C108, 2 days in transit, read-out: IC50
[28] = 48 h, isolate G296, 2 days in transit, read-out: IC50
[29] = 48 h, isolate H236, 2 days in transit, read-out: IC50
[30] = 48 h, isolate R107, 2 days in transit, read-out: IC50

CCN(CC)Cc1cc(Nc2ccnc3cc(Cl)ccc23)ccc1O [Amodiaquine, amodiaquine]
IC50 [1]: 6.6 nM
IC50 [2]: 26.8 nM
IC50 (24 h, isolate A67, 1 day in transit, read-out: IC50): 37.6 nM
IC50 (24 h, isolate A107, 1 day in transit, read-out: IC50): 91.8 nM
IC50 [3]: 70.2 nM
IC50 [4]: 17 nM
IC50 [5]: 152 nM
IC50 [6]: 28.8 nM
IC50 [7]: 117 nM
IC50 [8]: 179 nM
IC50 [9]: 68 nM
IC50 [10]: 29.8 nM
IC50 [11]: 178 nM
IC50 [12]: 180 nM
IC50 [13]: 152 nM
IC50 (24 h, isolate F107, 1 day in transit, read-out: IC50): 23.6 nM
IC50 [14]: 91.6 nM
IC50 [15]: 202 nM
IC50 [16]: 40.8 nM
IC50 [17]: 33.8 nM
IC50 [18]: 100 nM
IC50 [19]: 12.6 nM
IC50 [20]: 35.4 nM
IC50 [21]: 125 nM
IC50 [22]: 128 nM
IC50 [23]: 18.4 nM
IC50 [24]: 150 nM
IC50 (48 h, isolate B106, 2 days in transit, read-out: IC50): 99.2 nM
IC50 [25]: 145 nM
IC50 [26]: 53.4 nM
IC50 [27]: 86.2 nM
IC50 (48 h, isolate D166, 2 days in transit, read-out: IC50): 6.6 nM
IC50 [28]: 179 nM
IC50 [29]: 8.6 nM
IC50 [30]: 79.8 nM

CCN(CC)CCCC(C)Nc1ccnc2cc(Cl)ccc12 (stereo not shown) [Chloroquine, chloroquine]
IC50 (24 h, isolate 1107, 1 day in transit): 160 nM
IC50 (24 h, isolate 1236, 1 day in transit): 22.2 nM
IC50 (24 h, isolate A67, 1 day in transit): 191 nM
IC50 (24 h, isolate A107, 1 day in transit): 818 nM
IC50 (24 h, isolate A116, 1 day in transit): 58.4 nM
IC50 (24 h, isolate A246, 1 day in transit): 20 nM
IC50 (24 h, isolate A296, 1 day in transit): 115 nM
IC50 (24 h, isolate B236, 1 day in transit): 90.6 nM
IC50 (24 h, isolate C67, 1 day in transit): 143 nM
IC50 (24 h, isolate C107, 1 day in transit): 554 nM
IC50 (24 h, isolate C166, 1 day in transit): 30.8 nM
IC50 (24 h, isolate D86, 1 day in transit): 33.2 nM
IC50 (24 h, isolate D107, 1 day in transit): 502 nM
IC50 (24 h, isolate E67, 1 day in transit): 50 nM
IC50 (24 h, isolate E107, 1 day in transit): 554 nM
IC50 (24 h, isolate F107, 1 day in transit): 818 nM
IC50 (24 h, isolate F166, 1 day in transit): 29.8 nM
IC50 (24 h, isolate F296, 1 day in transit): 66.4 nM
IC50 (24 h, isolate G17, 1 day in transit): 52 nM
IC50 (24 h, isolate G236, 1 day in transit): 330 nM
IC50 (24 h, isolate H107, 1 day in transit): 180 nM
IC50 (24 h, isolate J107, 1 day in transit): 294 nM
IC50 (24 h, isolate K107, 1 day in transit): 300 nM
IC50 (24 h, isolate KilH, 1 day in transit): 248 nM
IC50 (24 h, isolate KilS, 1 day in transit): 122 nM
IC50 (24 h, isolate L107, 1 day in transit): 224 nM
IC50 (24 h, isolate L137, 1 day in transit): 320 nM
IC50 (48 h, isolate B106, 2 days in transit): 294 nM
IC50 (48 h, isolate B116, 2 days in transit): 35.2 nM
IC50 (48 h, isolate B296, 2 days in transit): 664 nM
IC50 (48 h, isolate C108, 2 days in transit): 256 nM
IC50 (48 h, isolate G296, 2 days in transit): 400 nM
IC50 (48 h, isolate H236, 2 days in transit): 91.4 nM
IC50 (48 h, isolate R107, 2 days in transit): 78.8 nM

C=C[C@H]1C[N@@]2CC[C@H]1C[C@H]2[C@H](O)c1ccnc2ccc(OC)cc12 [Quinine, quinine]
IC50 [1]: 40 nM
IC50 [2]: 0.04 nM
IC50 [3]: 152 nM
IC50 [4]: 16.3 nM
IC50 [5]: 476 nM
IC50 [6]: 183 nM
IC50 [7]: 136 nM
IC50 [8]: 96.4 nM
IC50 [9]: 165 nM
IC50 [10]: 175 nM
IC50 [11]: 264 nM
IC50 [12]: 999 nM
IC50 (24 h, isolate E67, 1 day in transit, read-out: IC50): 108 nM
IC50 [13]: 230 nM
IC50 [14]: 93.2 nM
IC50 [15]: 99.2 nM
IC50 [16]: 143 nM
IC50 [17]: 304 nM
IC50 [18]: 28 nM
IC50 [19]: 55.4 nM
IC50 [20]: 354 nM
IC50 [21]: 378 nM
IC50 [22]: 187 nM
IC50 [23]: 58.8 nM
IC50 [24]: 134 nM
IC50 [25]: 136 nM
IC50 [26]: 1.8 nM
IC50 [27]: 160 nM
IC50 [28]: 306 nM
IC50 [29]: 208 nM
IC50 [30]: 472 nM
